Test results: ChEMBL document CHEMBL2176885, “Structural basis for the potent and selective inhibition of casein kinase 1 epsilon” (J Med Chem, 2012)
Numbering of substitutions follows the chain as printed.

Assays:
[1] = test system: T1, Casein kinase I isoform delta (Homo sapiens), P48730 [R69K]; assay: Binding affinity to human CK1delta R69K mutant assessed as change in melting temperature by differential scanning fluorimetry
T1 sequence (whole entry): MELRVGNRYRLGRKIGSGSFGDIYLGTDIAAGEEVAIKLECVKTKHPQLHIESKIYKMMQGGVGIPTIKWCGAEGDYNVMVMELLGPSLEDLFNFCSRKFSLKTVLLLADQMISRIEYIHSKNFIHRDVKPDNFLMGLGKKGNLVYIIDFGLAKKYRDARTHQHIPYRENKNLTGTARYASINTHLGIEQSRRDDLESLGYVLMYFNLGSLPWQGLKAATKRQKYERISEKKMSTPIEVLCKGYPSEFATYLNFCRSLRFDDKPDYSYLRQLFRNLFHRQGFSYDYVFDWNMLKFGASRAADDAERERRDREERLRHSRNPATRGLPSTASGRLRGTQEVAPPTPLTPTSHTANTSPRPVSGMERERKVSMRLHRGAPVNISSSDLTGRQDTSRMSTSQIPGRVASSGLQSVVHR

[2] = test system: T2, Casein kinase I isoform epsilon (Homo sapiens), P49674 [K69R]; assay: Binding affinity to human CK1epsilon K69R mutant assessed as change in melting temperature by differential scanning fluorimetry
T2 sequence (whole entry): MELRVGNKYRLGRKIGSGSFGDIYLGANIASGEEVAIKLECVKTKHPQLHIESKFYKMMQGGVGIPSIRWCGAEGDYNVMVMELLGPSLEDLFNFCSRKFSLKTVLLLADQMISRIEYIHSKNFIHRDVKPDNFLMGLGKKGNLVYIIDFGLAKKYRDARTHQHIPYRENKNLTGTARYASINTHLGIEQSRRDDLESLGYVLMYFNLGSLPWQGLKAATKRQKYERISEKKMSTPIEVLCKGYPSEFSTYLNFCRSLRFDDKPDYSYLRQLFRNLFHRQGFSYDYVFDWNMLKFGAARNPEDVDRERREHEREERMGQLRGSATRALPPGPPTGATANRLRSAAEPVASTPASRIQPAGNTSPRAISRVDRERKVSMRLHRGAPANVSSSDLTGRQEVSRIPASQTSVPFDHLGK

[3] = biological target: Casein kinase I isoform delta (Homo sapiens) (UniProt P48730); assay: Binding affinity to wild type human CK1delta (1-294 amino acids) assessed as change in melting temperature by differential scanning fluorimetry
[4] = biological target: Casein kinase I isoform epsilon (Homo sapiens) (UniProt P49674); assay: Binding affinity to wild type human CK1epsilon (1-294 amino acids) assessed as change in melting temperature by differential scanning fluorimetry
[5] = test system: T3, Casein kinase I isoform delta (Homo sapiens), P48730 [T67S]; assay: Binding affinity to human CK1delta T67S mutant assessed as change in melting temperature by differential scanning fluorimetry
T3 sequence (whole entry): T1 sequence (whole entry) with T67S, K69R

[6] = test system: T4, Casein kinase I isoform delta (Homo sapiens), P48730 [I55F]; assay: Binding affinity to human CK1delta I55F mutant assessed as change in melting temperature by differential scanning fluorimetry
T4 sequence (whole entry): T1 sequence (whole entry) with I55F, K69R

[7] = test system: T5, Casein kinase I isoform epsilon (Homo sapiens), P49674 [S67T]; assay: Binding affinity to human CK1epsilon S67T mutant assessed as change in melting temperature by differential scanning fluorimetry
T5 sequence (whole entry): T2 sequence (whole entry) with S67T, R69K

[8] = test system: T6, Casein kinase I isoform epsilon (Homo sapiens), P49674 [F55I]; assay: Binding affinity to human CK1epsilon F55I mutant assessed as change in melting temperature by differential scanning fluorimetry
T6 sequence (whole entry): T2 sequence (whole entry) with F55I, R69K

Sequence of Casein kinase I isoform epsilon (Homo sapiens) (P49674 whole entry, looked up, the tested form may be a part, canonical isoform): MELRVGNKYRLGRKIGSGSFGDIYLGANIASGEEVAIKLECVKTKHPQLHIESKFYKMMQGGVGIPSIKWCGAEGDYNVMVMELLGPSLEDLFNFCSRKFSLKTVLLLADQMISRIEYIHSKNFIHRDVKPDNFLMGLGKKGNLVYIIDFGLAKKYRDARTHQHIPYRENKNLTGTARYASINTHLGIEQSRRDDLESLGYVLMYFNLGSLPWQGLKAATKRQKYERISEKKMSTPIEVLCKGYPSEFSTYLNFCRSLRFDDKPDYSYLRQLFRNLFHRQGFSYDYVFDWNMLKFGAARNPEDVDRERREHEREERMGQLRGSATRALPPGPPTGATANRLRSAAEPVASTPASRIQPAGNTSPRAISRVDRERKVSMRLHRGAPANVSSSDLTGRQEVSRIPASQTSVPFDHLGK
Sequence of Casein kinase I isoform delta (Homo sapiens) (P48730 whole entry, looked up, the tested form may be a part, canonical isoform): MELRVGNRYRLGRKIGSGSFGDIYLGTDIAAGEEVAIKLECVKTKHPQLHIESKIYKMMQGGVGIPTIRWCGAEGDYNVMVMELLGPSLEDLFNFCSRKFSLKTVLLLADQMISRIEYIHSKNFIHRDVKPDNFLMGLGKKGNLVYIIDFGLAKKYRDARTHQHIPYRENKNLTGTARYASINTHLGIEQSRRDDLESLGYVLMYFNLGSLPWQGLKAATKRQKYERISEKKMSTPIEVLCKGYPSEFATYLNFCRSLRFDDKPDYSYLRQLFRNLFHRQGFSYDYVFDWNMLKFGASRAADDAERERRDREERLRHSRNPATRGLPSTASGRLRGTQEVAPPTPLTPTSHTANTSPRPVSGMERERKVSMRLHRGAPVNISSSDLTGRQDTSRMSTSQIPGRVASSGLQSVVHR

Compound | ΔTm [1] [°C] | ΔTm [2] [°C] | ΔTm [3] [°C] | ΔTm [4] [°C] | ΔTm [5] [°C] | ΔTm [6] [°C] | ΔTm [7] [°C] | ΔTm [8] [°C]
Nc1ncnc2c1c(COc1cccc(Cl)c1)nn2C1CCOCC1 | 4.8 | 11.5 | 4.8 | 11.5 | 4.8 | 13.2 | 11.5 | 6.4
Nc1nccc(-c2c(-c3ccc(F)cc3)ncn2C2CCCCC2)n1 | 9.6 | 8.6 | 9.6 | 8.6 | 9.6 | 9.6 | 8.6 | 10.4
